Laboratory results published in US10131652B2, “Pyrimidinyloxy benzene derivatives as herbicides” (E. I. DU PONT DE NEMOURS AND COMPANY, priority 2014, dated 2018).
Where two headings read alike, the source gives them in different places.

What was measured:
Test in all cases: Test D pre-/postemergence plant response
Type in all cases: in vivo
[1] = system: velvetleaf (Abutilon theophrasti); conditions: Abutilon theophrasti; for pest or weed control at 16 g/ha: 16 g ai/ha; for pest or weed control at 31 g/ha: 31 g ai/ha; for pest or weed control at 62 g/ha: 62 g ai/ha; for pest or weed control at 125 g/ha: 125 g ai/ha
Procedure, shortened: (§1)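 Pre-/post-emergence greenhouse test. Pre: seeded loam+sand, sprayed same day. Post: 1–4 leaf plants (2–18 cm), peat/vermiculite mix. Formulation: non-phytotoxic solvent + surfactant. Scored visually d13–15, 0–100 vs control.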

[2] = system: barnyardgrass (Echinochloa crus-galli); conditions: Echinochloa crus-galli; for pest or weed control at 16 g/ha: 16 g ai/ha; for pest or weed control at 16 g/ha / pest or weed control at 31 g/ha: scale 0 to 100 (0 no effect, 100 complete control); for pest or weed control at 31 g/ha: 31 g ai/ha; for pest or weed control at 62 g/ha: 62 g ai/ha; for pest or weed control at 125 g/ha: 125 g ai/ha
Procedure, shortened: as §1

[3] = system: large (Lg) crabgrass (Digitaria sanguinalis); conditions: Digitaria sanguinalis; for pest or weed control at 16 g/ha: 16 g ai/ha; for pest or weed control at 31 g/ha: 31 g ai/ha; for pest or weed control at 62 g/ha: 62 g ai/ha; for pest or weed control at 125 g/ha: 125 g ai/ha
Procedure, shortened: as §1

[4] = system: lambsquarters (Chenopodium album); conditions: Chenopodium album; for pest or weed control at 16 g/ha: 16 g ai/ha; for pest or weed control at 31 g/ha: 31 g ai/ha; for pest or weed control at 62 g/ha: 62 g ai/ha; for pest or weed control at 125 g/ha: 125 g ai/ha
Procedure, shortened: as §1

[5] = system: giant foxtail (Setaria faberii); conditions: Setaria faberi; for pest or weed control at 16 g/ha: 16 g ai/ha; for pest or weed control at 31 g/ha: 31 g ai/ha; for pest or weed control at 62 g/ha: 62 g ai/ha; for pest or weed control at 125 g/ha: 125 g ai/ha
Procedure, shortened: as §1

[6] = system: waterhemp (common waterhemp, Amaranthus rudis); conditions: Amaranthus tuberculatus; for pest or weed control at 16 g/ha: 16 g ai/ha; for pest or weed control at 31 g/ha: 31 g ai/ha; for pest or weed control at 62 g/ha: 62 g ai/ha; for pest or weed control at 125 g/ha: 125 g ai/ha
Procedure, shortened: as §1

[7] = post-emergence, Postemergence, scale 0 to 100 (0 no effect, 100 complete control), read-out: Velvetleaf plant response rating
[8] = post-emergence, Postemergence, scale 0 to 100, 0 no effect, 100 complete control, read-out: Plant response rating, Velvetleaf
[9] = pre-emergence, Preemergence, scale 0 to 100 (0 no effect, 100 complete control), read-out: Plant response rating, Velvetleaf
[10] = post-emergence, Postemergence, read-out: Barnyardgrass plant response rating
[11] = post-emergence, Postemergence, scale 0 to 100, 0 no effect, 100 complete control, read-out: Plant response rating, Barnyardgrass
[12] = pre-emergence, Preemergence, read-out: Plant response rating (scale 0 to 100), Barnyardgrass
[13] = pre-emergence, Preemergence, read-out: Plant response rating, Barnyardgrass
[14] = post-emergence, Postemergence, scale 0 to 100 (0 no effect, 100 complete control), read-out: Crabgrass, Large plant response rating
[15] = post-emergence, Postemergence, scale 0 to 100, 0 no effect, 100 complete control, read-out: Plant response rating, Crabgrass, Large
[16] = pre-emergence, Preemergence, scale 0 to 100 (0 no effect, 100 complete control), read-out: Plant response rating, Crabgrass, Large
[17] = post-emergence, Postemergence, scale 0 to 100 (0 no effect, 100 complete control), read-out: Lambsquarters plant response rating
[18] = post-emergence, Postemergence, scale 0 to 100, 0 no effect, 100 complete control, read-out: Plant response rating, Lambsquarters
[19] = pre-emergence, Preemergence, scale 0 to 100 (0 no effect, 100 complete control), read-out: Plant response rating, Lambsquarters
[20] = post-emergence, Postemergence, scale 0 to 100 (0 no effect, 100 complete control), read-out: Foxtail, Giant plant response rating
[21] = post-emergence, Postemergence, scale 0 to 100, 0 no effect, 100 complete control, read-out: Plant response rating, Foxtail, Giant
[22] = pre-emergence, Preemergence, scale 0 to 100 (0 no effect, 100 complete control), read-out: Plant response rating, Foxtail, Giant
[23] = post-emergence, Postemergence, scale 0 to 100 (0 no effect, 100 complete control), read-out: Waterhemp plant response rating
[24] = post-emergence, Postemergence, scale 0 to 100, 0 no effect, 100 complete control, read-out: Plant response rating, Waterhemp
[25] = pre-emergence, Preemergence, scale 0 to 100 (0 no effect, 100 complete control), read-out: Plant response rating, Waterhemp

With FC(F)(F)c1cc(-c2ccccc2Oc2ncc(Cl)cn2)on1 [Compound 63, 5-chloro-2-[2-[3-(trifluoromethyl)-5-isoxazolyl]phenoxy]pyrimidine] the pest or weed control at 16 g/ha [1, 7] was 10%, the pest or weed control at 31 g/ha [1, 7] was 25% and the pest or weed control at 62 g/ha [1, 8] was 40%. For the same compound, the pest or weed control at 125 g/ha [1, 8] was 40%, the pest or weed control at 125 g/ha ([1]; pre-emergence, Preemergence, read-out: Plant response rating (scale 0 to 100), Velvetleaf) was 100% and the pest or weed control at 16 g/ha [1, 9] was 40%. The pest or weed control at 31 g/ha [1, 9] was 100%, the pest or weed control at 62 g/ha [1, 9] was 100% and the pest or weed control at 16 g/ha [2, 10] was 5%. The pest or weed control at 31 g/ha [2, 10] was 10%, the pest or weed control at 62 g/ha [2, 11] was 10% and the pest or weed control at 125 g/ha [2, 11] was 10%. For the same compound, the pest or weed control at 62 g/ha [2, 12] was 98%, the pest or weed control at 125 g/ha [2, 12] was 100% and the pest or weed control at 16 g/ha [2, 13] was 30%. For the same compound, the pest or weed control at 31 g/ha [2, 13] was 65%, the pest or weed control at 16 g/ha [3, 14] was 5% and the pest or weed control at 31 g/ha [3, 14] was 5%. For the same compound, the pest or weed control at 62 g/ha [3, 15] was 10%, the pest or weed control at 125 g/ha [3, 15] was 35% and the pest or weed control at 125 g/ha ([3]; pre-emergence, Preemergence, read-out: Plant response rating (scale 0 to 100), Crabgrass, Large) was 100%. For the same compound, the pest or weed control at 16 g/ha [3, 16] was 65%, the pest or weed control at 31 g/ha [3, 16] was 98% and the pest or weed control at 62 g/ha [3, 16] was 98%. It also gave a pest or weed control at 16 g/ha [4, 17] of 10%, a pest or weed control at 31 g/ha [4, 17] of 70% and a pest or weed control at 62 g/ha [4, 18] of 85%. The pest or weed control at 125 g/ha [4, 18] was 90%, the pest or weed control at 125 g/ha ([4]; pre-emergence, Preemergence, read-out: Plant response rating (scale 0 to 100), Lambsquarters) was 95% and the pest or weed control at 16 g/ha [4, 19] was 95%. The pest or weed control at 31 g/ha [4, 19] was 90%, the pest or weed control at 62 g/ha [4, 19] was 90% and the pest or weed control at 16 g/ha [5, 20] was 0%. The pest or weed control at 31 g/ha [5, 20] was 5%, the pest or weed control at 62 g/ha [5, 21] was 10% and the pest or weed control at 125 g/ha [5, 21] was 20%. It also gave a pest or weed control at 125 g/ha ([5]; pre-emergence, Preemergence, read-out: Plant response rating (scale 0 to 100), Foxtail, Giant) of 100%, a pest or weed control at 16 g/ha [5, 22] of 30% and a pest or weed control at 31 g/ha [5, 22] of 80%. It also gave a pest or weed control at 62 g/ha [5, 22] of 98%, a pest or weed control at 16 g/ha [6, 23] of 85% and a pest or weed control at 31 g/ha [6, 23] of 85%. For the same compound, the pest or weed control at 62 g/ha [6, 24] was 98%, the pest or weed control at 125 g/ha [6, 24] was 98% and the pest or weed control at 125 g/ha ([6]; pre-emergence, Preemergence, read-out: Plant response rating (scale 0 to 100), Waterhemp) was 100%. The pest or weed control at 16 g/ha [6, 25] was 90%, the pest or weed control at 31 g/ha [6, 25] was 100% and the pest or weed control at 62 g/ha [6, 25] was 100%.
